Assays:
Format in all cases: in vivo
Blattalla germanica = assay: Test Example 5: filter paper/sucrose bait test on Blattalla germanica; conditions: for pest or weed control at 500 ppm: 144 h, read-out: pest death rate
Description: A formulation of any one of the present compounds (4), (5), (7), (12), (13), (18t), (18c), (22), (25t), (25c), (26t), (26c), (29), (30), (31), (32), (33), (34), (40), (41), (43), (49) and (55) obtained according to Formulation Example 36 was diluted with water so that the active ingredient concentration was 500 ppm to obtain a test solution.
(§1) A filter paper having a diameter of 5.5 cm was spread on the bottom of a polyethylene cup having a diameter of 5.5 cm and 0.7 ml of the test solution was added dropwise onto the filter paper. As a bait 30 mg of sucrose was uniformly placed on the filter paper. Into the polyethylene cup, 2 male imagoes of Blattalla germanica were released and the cup was sealed with a lid. After 6 days, the number of surviving Blattalla germanica was examined and the death rate of the pest was calculated.

Culex pipiens pallens = assay: Test Example 6: larvae of Culex pipiens pallens in treated water; conditions: 24 h, read-out: pest death rate
Description: A formulation of any one of the present compounds (7), (11), (12), (13), (17), (18t), (18c), (22), (24), (25t), (25c), (26t), (26c), (27), (29), (33), (34), (35), (36), (38), (40), (41), (43), (47), (49), (50) and (55) obtained according to Formulation Example 36 was diluted with water so that the active ingredient concentration was 500 ppm to obtain a test solution.
To 100 mL of ion-exchanged water, 0.7 ml of the test solution was added (active ingredient concentration: 3.5 ppm). Into the solution, 20 last-instar larvae of Culex pipiens pallens were released. One day after, the number of surviving Culex pipiens pallens was examined and the death rate of the pest was calculated.

Musca domestica = assay: Test Example 4: filter paper/sucrose bait test on Musca domestica; conditions: 24 h, read-out: pest death rate
Description: A formulation of any one of the present compounds (1), (4), (5), (7), (11), (12), (13), (18t), (18c), (19), (20), (21), (22), (24), (25t), (25c), (26t), (26c), (27), (29), (30), (31), (32), (33), (34), (35), (40), (41), (43), (49), (50) and (55) obtained according to Formulation Example 36 was diluted with water so that the active ingredient concentration was 500 ppm to obtain a test solution.
as §1, with “10 female” for “2 male”, “Musca domestica” for “Blattalla germanica”, “24 hours,” for “6 days,”

[1] = system: Haemaphysalis longicornis; assay: Test Example 7: treated filter paper pouch test on ticks; conditions: filter paper treated with 100 mg/m^2, non-blood-sucking nymphal ticks, 10 ticks/group, two days after; for pest or weed control at 100 mg/m2: Haemaphysalis longicornis, 48 h, read-out: pest death rate
Description: Five milligrams of any one of the present compounds (4), (7), (18t), (22), (25t), (26t), (29), (30), (31), (32), (33), (34), (35), (40), (41), (42), (43), (44) and (55) was dissolved in 10 mL of acetone. One milliliter of the acetone solution was uniformly applied on one side of a filter paper (TOYO No. 2; 5×10 cm), so that the filter paper having a surface area of 50 cm^2 was treated with 100 mg/m^2 of the present compound. After drying, the filter paper was folded in two and its edges were clipped to make a pouch. Test ticks (non-blood-sucking nymphal ticks, Haemaphysalis longicornis, 10 ticks/group) were put into the pouch, and the pouch was sealed with clips. Two days after, the number of surviving ticks was examined and the death rate was calculated.

## C#CC1=CCC(CS(=O)(=O)CCC(F)(F)F)CC1 (centres unmarked)
Blattalla germanica
  pest or weed control at 500 ppm: 100%
Culex pipiens pallens
  pest or weed control at 3.5 ppm: ≥ 95%
Musca domestica
  pest or weed control at 500 ppm: ≥ 90%
[1]
  pest or weed control at 100 mg/m2: 90%

## FC(F)(F)CCSCC1CCC2(CC1)OCCO2 [present compound (1)]
Musca domestica
  pest or weed control at 500 ppm: ≥ 90%

## O=S(=O)(CCC(F)(F)F)CC1CCC(F)(F)CC1 [present compound (4), 1,1-difluoro-4-(3,3,3,-trifluoropropylsulfonylmethyl)cyclohexanone]
Blattalla germanica
  pest or weed control at 500 ppm: 100%
Musca domestica
  pest or weed control at 500 ppm: ≥ 90%
[1]
  pest or weed control at 100 mg/m2: 90%

## O=S(=O)(CCC(F)(F)F)CC1CC=C(F)CC1 (centres unmarked) [present compound (5)]
Blattalla germanica
  pest or weed control at 500 ppm: 100%
Musca domestica
  pest or weed control at 500 ppm: ≥ 90%

## C#CC1(F)CCC(CS(=O)(=O)CCC(F)(F)F)CC1 (centres unmarked) [present compound (7)]
Blattalla germanica
  pest or weed control at 500 ppm: 100%
Culex pipiens pallens
  pest or weed control at 3.5 ppm: ≥ 95%
Musca domestica
  pest or weed control at 500 ppm: ≥ 90%
[1]
  pest or weed control at 100 mg/m2: 90%

## COC(=O)C(C1CCC(F)(F)CC1)S(=O)(=O)CCC(F)(F)F (centres unmarked) [present compound (11), methyl 2-(4,4-difluorocyclohexyl)-2-(3,3,3-trifluoropropylsulfonyl)acetate]
Culex pipiens pallens
  pest or weed control at 3.5 ppm: ≥ 95%
Musca domestica
  pest or weed control at 500 ppm: ≥ 90%

## COC(=O)C(F)(C1CCC(F)(F)CC1)S(=O)(=O)CCC(F)(F)F (centres unmarked) [present compound (12), methyl 2-(4,4-difluorocyclohexyl)-2-fluoro-2-(3,3,3-trifluoropropylsulfonyl)acetate]
Blattalla germanica
  pest or weed control at 500 ppm: 100%
Culex pipiens pallens
  pest or weed control at 3.5 ppm: ≥ 95%
Musca domestica
  pest or weed control at 500 ppm: ≥ 90%

## NC(=O)C(F)(C1CCC(F)(F)CC1)S(=O)(=O)CCC(F)(F)F (centres unmarked) [present compound (13), 2-(4,4-difluorocyclohexyl)-2-fluoro-2-(3,3,3-trifluoropropylsulfonyl)acetamide]
Blattalla germanica
  pest or weed control at 500 ppm: 100%
Culex pipiens pallens
  pest or weed control at 3.5 ppm: ≥ 95%
Musca domestica
  pest or weed control at 500 ppm: ≥ 90%

## O=S(=O)(CCC(F)(F)F)CC1CCC(C=C(Br)Br)CC1 (centres unmarked) [present compound (17), 1-(2,2-dibromovinyl)-4-(3,3,3-trifluoropropylsulfonylmethyl)cyclohexane]
Culex pipiens pallens
  pest or weed control at 3.5 ppm: ≥ 95%

## C#CC1CCC(CS(=O)(=O)CCC(F)(F)F)CC1 (centres unmarked) [present compound (18t), 1-ethynyl-4-(3,3,3-trifluoropropylsulfonylmethyl)cyclohexane]
Blattalla germanica
  pest or weed control at 500 ppm: 100%
Culex pipiens pallens
  pest or weed control at 3.5 ppm: ≥ 95%
Musca domestica
  pest or weed control at 500 ppm: ≥ 90%
[1]
  pest or weed control at 100 mg/m2: 90%

## COC(=O)CCC#CC1CCC(CS(=O)(=O)CCC(F)(F)F)CC1 (centres unmarked) [present compound (19), 5-[4-(3,3,3-trifluoropropylsulfonylmethyl)cycohexanyl]-4-pentynic acid methyl ester]
Musca domestica
  pest or weed control at 500 ppm: ≥ 90%

## N#CC1CCC(CS(=O)(=O)CCC(F)(F)F)CC1 (centres unmarked) [present compound (20), 1-cyano-4-(3,3,3-trifluoropropylsulfonylmethyl)cyclohexane]
Musca domestica
  pest or weed control at 500 ppm: ≥ 90%

## CON=C1CCC(CS(=O)(=O)CCC(F)(F)F)CC1 (centres unmarked) [present compound (21), 4-(3,3,3-trifluoropropylsulfonylmethyl)-cyclohexanone O-methyloxime]
Musca domestica
  pest or weed control at 500 ppm: ≥ 90%

## FC(F)(F)CCSCC1CCC(C=C(Br)Br)CC1 (centres unmarked) [present compound (24), 1-(2,2-dibromovinyl)-4-(3,3,3-trifluoropropylthiomethyl)cyclohexane]
Culex pipiens pallens
  pest or weed control at 3.5 ppm: ≥ 95%
Musca domestica
  pest or weed control at 500 ppm: ≥ 90%

## C#CC1CCC(CSCCC(F)(F)F)CC1 (centres unmarked) [present compound (25c)]
Blattalla germanica
  pest or weed control at 500 ppm: 100%
Culex pipiens pallens
  pest or weed control at 3.5 ppm: ≥ 95%
Musca domestica
  pest or weed control at 500 ppm: ≥ 90%

## N#CC(C1CCC2(CC1)OCCO2)S(=O)(=O)CCC(F)(F)F (centres unmarked) [present compound (27), 2-(1,4-dioxaspiro[4.5]dec-8-yl)-2-(3,3,3-trifluoropropylsulfonyl)acetonitrile]
Culex pipiens pallens
  pest or weed control at 3.5 ppm: ≥ 95%
Musca domestica
  pest or weed control at 500 ppm: ≥ 90%

## C#CC1(O)CCC(C(C#N)S(=O)(=O)CCC(F)(F)F)CC1 (centres unmarked) [present compound (30), 2-(4-ethynyl-4-hydroxycyclohexyl)-2-(3,3,3-trifluoropropylsulfonyl)acetonitrile]
Blattalla germanica
  pest or weed control at 500 ppm: 100%
Musca domestica
  pest or weed control at 500 ppm: ≥ 90%
[1]
  pest or weed control at 100 mg/m2: 90%

## C#CC1(F)CCC(C(C#N)S(=O)(=O)CCC(F)(F)F)CC1 (centres unmarked) [present compound (31), 2-(4-ethynyl-4-fluorocyclohexyl)-2-(3,3,3-trifluoropropylsulfonyl)acetonitrile]
Blattalla germanica
  pest or weed control at 500 ppm: 100%
Musca domestica
  pest or weed control at 500 ppm: ≥ 90%
[1]
  pest or weed control at 100 mg/m2: 90%

## C#CC1CCC=CC1C(C#N)S(=O)(=O)CCC(F)(F)F (centres unmarked) [present compound (32), 2-(4-ethynyl-cyclohexen-3-yl)-2-(3,3,3-trifluoropropylsulfonyl)acetonitrile]
Blattalla germanica
  pest or weed control at 500 ppm: 100%
Musca domestica
  pest or weed control at 500 ppm: ≥ 90%
[1]
  pest or weed control at 100 mg/m2: 90%

## CCON=C1CCC(C(C#N)S(=O)(=O)CCC(F)(F)F)CC1 (centres unmarked) [present compound (35), 2-[4-(ethoxyimino)cyclohexyl]-2-(3,3,3-trifluoropropylsufonyl)acetonitrile]
[1]
  pest death rate: 90%

## CC(C)(C)ON=C1CCC(C(C#N)S(=O)(=O)CCC(F)(F)F)CC1 (centres unmarked) [present compound (36), 2-[4-(t-butoxyimino)cyclohexyl]-2-(3,3,3-trifluoropropylsulfonyl)acetonitrile]
Culex pipiens pallens
  pest or weed control at 3.5 ppm: ≥ 95%

## N#CC(C1CCC(=NOCc2ccccc2)CC1)S(=O)(=O)CCC(F)(F)F (centres unmarked) [present compound (38), 2-[4-(O-benzylhydroxylimino)cyclohexyl]-2-(3,3,3-trifluoropropylsulfonyl)acetonitrile]
Culex pipiens pallens
  pest or weed control at 3.5 ppm: ≥ 95%

## CCCC(C#N)(C1CCC(=NOC)CC1)S(=O)(=O)CCC(F)(F)F (centres unmarked) [present compound (42), 2-[4-(methoxyimino)cyclohexyl]-2-(3,3,3-trifluoropropylsulfonyl)pentanenitrile]
[1]
  pest or weed control at 100 mg/m2: 90%

## C=CC(C)C(C#N)(C1CCC(=NOC)CC1)S(=O)(=O)CCC(F)(F)F (centres unmarked) [present compound (43), 2-[4-(methoxyimino)cyclohexyl]-3-methyl-2-(3,3,3-trifluoropropylsufonyl)-4-pentenenitrile]
Blattalla germanica; 500 ppm, 0.7 ml on filter paper, 2 male imagoes of Blattalla germanica, after 6 days
  pest death rate: 100%
[1]
  pest death rate: 90%

## C#CC(C)C(C#N)(C1CCC(=NOC)CC1)S(=O)(=O)CCC(F)(F)F (centres unmarked) [present compound (44), 2-[4-(methoxyimino)cyclohexyl]-3-methyl-2-(3,3,3-trifluoropropylsulfonyl)-4-pentynenitrile]
[1]
  pest or weed control at 100 mg/m2: 90%

## N#CC(C1CCCCC1)S(=O)(=O)CCC(F)(F)F (centres unmarked) [present compound (47), 2-cyclohexyl-2-(3,3,3-trifluoropropylsulfonyl)acetonitrile]
Culex pipiens pallens
  pest or weed control at 3.5 ppm: ≥ 95%

## CC1CCC(C(C#N)S(=O)(=O)CCC(F)(F)F)CC1 (centres unmarked) [present compound (49), 2-(4-methylcyclohexyl)-2-(3,3,3-trifluoropropylsulfonyl)acetonitrile]
Blattalla germanica
  pest or weed control at 500 ppm: 100%
Culex pipiens pallens
  pest or weed control at 3.5 ppm: ≥ 95%
Musca domestica
  pest or weed control at 500 ppm: ≥ 90%

## CC1(C)CCC(C(C#N)S(=O)(=O)CCC(F)(F)F)CC1 (centres unmarked) [present compound (50), 2-(4,4-dimethylcyclohexyl)-2-(3,3,3-trifluoropropylsulfonyl)acetonitrile]
Culex pipiens pallens
  pest or weed control at 3.5 ppm: ≥ 95%
Musca domestica
  pest or weed control at 500 ppm: ≥ 90%
